According to publication PMC5085647:

How the values were obtained:
porcine liver APEH = molecular target: T1, porcine liver APEH (Sus scrofa, UniProt P19205); assay: APEH inhibition in cell-free assay (Ac-Ala-pNA substrate); format: biochemical; conditions: Figure S1A
T1 sequence (P19205 1-732): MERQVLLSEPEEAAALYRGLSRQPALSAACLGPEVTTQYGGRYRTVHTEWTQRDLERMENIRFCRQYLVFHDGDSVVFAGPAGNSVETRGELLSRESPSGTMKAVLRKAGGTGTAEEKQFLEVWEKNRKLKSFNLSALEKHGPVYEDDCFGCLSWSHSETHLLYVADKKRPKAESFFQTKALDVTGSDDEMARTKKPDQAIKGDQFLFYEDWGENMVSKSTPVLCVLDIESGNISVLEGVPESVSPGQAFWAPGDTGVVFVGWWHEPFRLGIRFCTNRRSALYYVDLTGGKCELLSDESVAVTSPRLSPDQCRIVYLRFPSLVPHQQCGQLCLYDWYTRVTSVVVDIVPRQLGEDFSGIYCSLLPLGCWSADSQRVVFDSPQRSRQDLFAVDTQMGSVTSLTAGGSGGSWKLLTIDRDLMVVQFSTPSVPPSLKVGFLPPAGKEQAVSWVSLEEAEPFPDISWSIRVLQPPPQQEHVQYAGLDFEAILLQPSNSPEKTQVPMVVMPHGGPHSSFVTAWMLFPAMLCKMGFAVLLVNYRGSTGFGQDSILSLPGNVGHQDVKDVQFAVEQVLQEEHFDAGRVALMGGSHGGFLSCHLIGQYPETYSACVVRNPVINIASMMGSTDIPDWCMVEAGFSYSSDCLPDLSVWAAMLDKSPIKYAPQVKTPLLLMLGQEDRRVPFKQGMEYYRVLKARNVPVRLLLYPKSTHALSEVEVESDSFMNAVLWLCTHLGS
Description: APEH activity was measured spectrophotometrically using the chromogenic substrate Ac-Ala-pNA (Bachem, Laufelfingen, Switzerland). […] APEH activity was expressed in IU. […] Mixtures were pre-incubated for 30 min at 37 °C before addition of the substrate, and the enzymatic activities were followed as described above. […] Enzymes incubated without inhibitors were used as controls.

U2OS cells = assay: LDH release cytotoxicity assay; format: cell-based, human; conditions: BTZ 10 nM, positive control, n = 3
Description: The release of LDH (Lactate dehydrogenase) was used as a marker for cell toxicity. After treatment with 50 and 100 µM SsCEI 4 for 24 h, cleared supernatants were incubated with reaction buffer for 30 min at room temperature according to the manufacturer instructions (ab65393, LDH-Cytotoxicity Assay Kit II). Absorbance was measured at 490 nm and the cytotoxicity percentage was calculated as: [(Absorbancetest sample − Absorbancelow control)/(Absorbancehigh control − Absorbancelow control) × 100].

[1] = system: Beclin-1 and LC3-II in U2OS cells; assay: Autophagy markers Beclin-1 and LC3-I/LC3-II (Western blot); format: cell-based, human; conditions: Quercetin for 2 h and overnight
Description: For Western blotting analysis, protein aliquots (30 µg/lane) were run on SDS-PAGE (8% or 12.5%) and then electroblotted onto PVDF membranes (ImmobilonTM, Millipore, Milan, Italy). Membranes were next incubated with the specific primary antibodies (1 h at room temperature) and then incubated with the appropriate dilution of secondary antibodies (1 h at room temperature). Immunocomplexes were visualized by enhanced chemiluminescence and autoradiography according to the manufacturer protocol (Santa Cruz Biotechnology) and quantified by densitometric analysis with Image J software (NIH, Bethesda, […], USA), using the β-actin and Vinculin levels as loading control for normalization.
Figure S3. […] (A, left panel)
U2OS cells were treated with DMSO (C) or SsCEI 4 (50 and 100 µM) for 72 h. Then, cell lysates were […]
harvested and subjected to immunoblotting for Beclin-1; (A, right panel) Results of densitometry of […]
Beclin-1 bands are expressed as the mean of relationships between densitometries of Beclin-1 and […]
β-actin bands, used as loading control; (B) U2OS cells were treated with DMSO (C) or SsCEI 4 (50 […]
and 100 µM) for 72 h, and cell lysates were used to analyze LC3-II conversion by immunoblotting […]
using the specific antibody against LC3, which is able to recognize both the upper LC3-I band and […]
the lower LC3-II. […]

With `CC(C)C[C@H](NC(=O)[C@H](Cc1ccccc1)NC(=O)c1cnccn1)B(O)O` [Bortezomib] the “Effect toward APEH activity” value (porcine liver APEH) was “completely ineffective” and the “Cytotoxicity (LDH release in culture medium)” value (U2OS cells) was “exceeding 200%”.
For `O=c1c(O)c(-c2ccc(O)c(O)c2)oc2cc(O)cc(O)c12` [Quercetin], the “Beclin-1 and LC3-II levels (autophagy), positive control” value [1] was “strongly induced”.
